pIC50: −log10 of the molar value.
Columns and labels:
[1] = Cytotoxicity activity against human MCF7 cells assessed as growth inhibition measured after 48 hrs by MTT assay; assay type: functional, cell-based; conditions: MCF7, 48 h
[2] = Cytotoxicity activity against human A549 cells assessed as growth inhibition measured after 48 hrs by MTT assay; assay type: functional, cell-based; conditions: A549, 48 h

SMILES: CC(=O)O[C@H]1C(=O)[C@@]2(C)[C@H]([C@H](OC(=O)c3ccccc3)[C@]3(O)C[C@H](OC(=O)[C@H](O)[C@@H](NC(=O)c4ccccc4)c4ccccc4)C(C)=C1C3(C)C)[C@]1(OC(C)=O)CO[C@@H]1C[C@@H]2O [PACLITAXEL]
- pIC50 [1]: 7.22
- pIC50 [2]: 7.52
